Measured values from the supplement of paper PMC10307832.

What was measured:
Experiment in all cases: relative viability (nuclei count vs DMSO), 5 days (fraction); higher = more cells survive
IU1-47 + Alpelisib = compound: CC1=CC(=C(N1C2=CC=C(C=C2)Cl)C)C(=O)CN3CCCCC3 [IU1-47] + Cc1nc(NC(=O)N2CCC[C@H]2C(N)=O)sc1-c1ccnc(C(C)(C)C(F)(F)F)c1 [Alpelisib] (partner 2 µM)
Procedure, shortened: (§1)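 Lung cancer cell lines in 1536-well plates got either a single drug or a fixed anchor-drug dose together with five library-drug doses (not always all listed) in √10 steps, by pin tool, on the day after seeding. Nuclei were counted after 5 days, and relative viability is the treated-to-vehicle ratio of nuclei counts. Values are medians of duplicate plates.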

FG-4592 + Palbociclib = compound: Cc1nc(C(=O)NCC(=O)O)c(O)c2ccc(Oc3ccccc3)cc12 [FG-4592] + CC(=O)c1c(C)c2cnc(Nc3ccc(N4CCNCC4)cn3)nc2n(C2CCCC2)c1=O [Palbociclib] (partner 0.5 µM)
Procedure, shortened: as §1

FG-4592 + Bortezomib = compound: Cc1nc(C(=O)NCC(=O)O)c(O)c2ccc(Oc3ccccc3)cc12 [FG-4592] + CC(C)C[C@H](NC(=O)[C@H](Cc1ccccc1)NC(=O)c1cnccn1)B(O)O [Bortezomib] (partner 0.002 µM)
Procedure, shortened: as §1

FG-4592 + AZD7762 = compound: Cc1nc(C(=O)NCC(=O)O)c(O)c2ccc(Oc3ccccc3)cc12 [FG-4592] + NC(=O)Nc1cc(-c2cccc(F)c2)sc1C(=O)N[C@H]1CCCNC1 [AZD7762] (partner 0.2 µM)
Procedure, shortened: as §1

Row | Cell Line | relative viability (IU1-47 + Alpelisib; first compound 0.08 µM) | relative viability (IU1-47 + Alpelisib; first compound 0.253 µM) | relative viability (IU1-47 + Alpelisib; first compound 0.8 µM) | relative viability (IU1-47 + Alpelisib; first compound 2.53 µM) | relative viability (IU1-47 + Alpelisib; first compound 8 µM) | relative viability (FG-4592 + Palbociclib; first compound 0.08 µM) | relative viability (FG-4592 + Palbociclib; first compound 0.253 µM) | relative viability (FG-4592 + Palbociclib; first compound 0.8 µM) | relative viability (FG-4592 + Palbociclib; first compound 2.53 µM) | relative viability (FG-4592 + Palbociclib; first compound 8 µM) | relative viability (FG-4592 + Bortezomib; first compound 0.08 µM) | relative viability (FG-4592 + Bortezomib; first compound 0.253 µM) | relative viability (FG-4592 + Bortezomib; first compound 0.8 µM) | relative viability (FG-4592 + Bortezomib; first compound 2.53 µM) | relative viability (FG-4592 + Bortezomib; first compound 8 µM) | relative viability (FG-4592 + AZD7762; first compound 0.08 µM) | relative viability (FG-4592 + AZD7762; first compound 0.253 µM) | relative viability (FG-4592 + AZD7762; first compound 0.8 µM) | relative viability (FG-4592 + AZD7762; first compound 2.53 µM) | relative viability (FG-4592 + AZD7762; first compound 8 µM)
1 | EMC-BAC-2 | 0.768 | 0.824 | 0.793 | 0.749 | 0.711 | 0.51 | 0.529 | 0.467 | 0.503 | 0.47 | 1.04 | 1.04 | 0.934 | 1.02 | 1 | 1.17 | 0.903 | 0.901 | 1.08 | 1
2 | LU99A | 0.498 | 0.59 | 0.488 | 0.627 | 0.663 | 0.38 | 0.417 | – | 0.432 | 0.382 | 1.08 | 1.03 | 0.798 | 1.04 | 1.01 | 0.37 | 0.387 | – | 0.381 | 0.346
3 | NCI-H2170 | 0.905 | 0.799 | 0.84 | 0.777 | 0.772 | 0.423 | 0.351 | 0.345 | 0.381 | 0.282 | – | – | – | – | – | 0.755 | 0.834 | 0.816 | 0.817 | 0.643
4 | NCI-H1299 | 1.05 | 1.11 | 1.13 | 1.13 | 0.987 | – | – | – | – | – | 1.07 | 0.993 | 0.951 | 1 | 1.06 | – | – | – | – | –
5 | EBC-1 | 0.863 | 0.742 | 0.805 | 0.722 | 0.676 | – | – | – | – | – | 0.63 | 0.531 | 0.57 | 0.546 | 0.688 | – | – | – | – | –
6 | NCI-H2342 | – | – | – | – | – | 0.519 | 0.503 | 0.47 | 0.538 | 0.489 | – | – | – | – | – | 0.456 | 0.459 | 0.526 | 0.403 | 0.438
7 | ChaGo-K-1 | – | – | – | – | – | 0.9 | 0.878 | 1.01 | 0.914 | 0.958 | 1.04 | 0.873 | 0.726 | 1.11 | 0.533 | 0.846 | 0.888 | 0.856 | 0.93 | 0.66
8 | COR-L23 | 0.686 | 0.947 | 0.869 | 0.951 | 0.975 | 0.274 | 0.28 | 0.258 | 0.274 | 0.234 | 1.03 | 0.874 | 1.26 | 0.888 | 0.889 | – | – | – | – | –
9 | COR-L 105 | 1.29 | 1.06 | 1.11 | 1.16 | 0.783 | 0.419 | 0.433 | 0.324 | 0.34 | 0.418 | 0.75 | 0.725 | 0.796 | 0.807 | 0.674 | – | – | – | – | –
10 | LK-2 | 1.13 | 1.23 | 1.63 | 0.997 | 0.628 | 0.521 | 0.656 | – | 0.679 | 0.599 | – | – | – | – | – | 0.273 | 0.355 | – | 0.358 | 0.342
11 | NCI-H596 | 0.638 | 0.44 | 0.0053 | 0.429 | 0.49 | – | – | – | – | – | 0.919 | 0.808 | – | 0.994 | 0.983 | 1.1 | 1.08 | – | 1.15 | 0.952
